Activity calls are given as the source filed them. How the calls were made is not given here.
The molecules below were run against Induced myeloid leukemia cell differentiation protein Mcl-1 (Homo sapiens) (UniProt Q07820) (assay: blockers of Bid binding to Mcl-1 – biochemical, TR-FRET, dose response (AID 1418)). Conditions: Mcl-1/Bid peptide binding, TR-FRET (europium/Dy647), 2 hr.
Chain of Induced myeloid leukemia cell differentiation protein Mcl-1 (Homo sapiens) (Q07820 whole entry, looked up): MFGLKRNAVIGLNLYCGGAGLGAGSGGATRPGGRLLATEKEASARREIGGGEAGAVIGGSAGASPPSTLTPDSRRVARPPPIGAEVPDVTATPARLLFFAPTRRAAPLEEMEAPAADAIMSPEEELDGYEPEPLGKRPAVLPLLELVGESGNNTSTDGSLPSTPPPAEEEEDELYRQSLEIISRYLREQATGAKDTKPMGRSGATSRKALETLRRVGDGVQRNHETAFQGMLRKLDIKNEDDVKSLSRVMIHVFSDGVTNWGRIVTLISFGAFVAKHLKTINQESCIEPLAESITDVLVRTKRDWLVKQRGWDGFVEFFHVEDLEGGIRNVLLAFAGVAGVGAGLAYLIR
With `COc1ccc(NC(=O)c2cc(C3CC3)on2)c(OC)c1` the IC50 was > 54 µM (inactive).
With `CN(C)S(=O)(=O)c1cc(S(=O)(=O)N(C)C)c(Cl)cc1N` the IC50 was > 54 µM (inactive).
In the case of `O=C(Cc1ccccc1)Nc1scc(-c2ccccc2)c1C(=O)N1CCOCC1`, the IC50 is reported as > 54 µM (inactive).
`CN(CCOC(=O)C1c2ccccc2Oc2ccccc21)C(C)(C)C` was tested, and the IC50 was > 54 µM (inactive).
In the case of `O=C(O)C1Nc2c(O)cc(Cl)c([N+](=O)[O-])c2C2C=CCC12` (stereo not drawn), the IC50 is reported as 0.58 µM.
With `C=C(C(=O)c1ccccc1)C(C(=C)C(=O)c1ccccc1)c1ccc(OC)cc1` the IC50 was > 54 µM (inactive).
`Cc1ccccc1NC(=O)c1c(C)[nH]c(=S)c(C#N)c1-c1ccc(Cl)cc1` was tested, and the IC50 was > 54 µM (inactive).
For `O=C(Nc1nnc(-c2ccco2)s1)C1CC1`, the IC50 was > 54 µM (inactive).
`O=C(O)c1[nH]c2ccccc2c1C=NCc1ccccc1Cl` was tested, and the IC50 was > 54 µM (inactive).
With `O=[N+]([O-])c1ccc(N/N=C/c2cn(Cc3ccc(F)cc3)c3ccccc23)nc1` the IC50 was > 54 µM (inactive).
`COc1cc(-c2ccc(Nc3ccccc3C(=O)O)c(OC)c2)ccc1Nc1ccccc1C(=O)O` showed an IC50 of 0.85 µM.
In the case of `CCNC(=O)c1cc(S(=O)(=O)N(C)C)c(Cl)cc1Cl`, the IC50 is reported as > 54 µM (inactive).
For `C=CCOC(=O)/C(=C/c1ccco1)NC(=O)/C=C/c1ccccc1`, the IC50 was > 54 µM (inactive).
For `CC(=O)Cc1nsc(NC(=O)c2ccc(-c3cc(C(F)(F)F)ccc3Cl)o2)n1`, the IC50 was > 54 µM (inactive).
`O=C1Nc2ccccc2/C1=N/N=C/c1ccc(-c2ccc([N+](=O)[O-])cc2)o1` showed an IC50 of 0.59 µM.
`CCCCCCCCCCCCCCCC(O)C(N)CO` (stereo not drawn) was tested, and the IC50 was > 54 µM (inactive).
`O=C(COc1cccnc1[N+](=O)[O-])c1ccc(Cl)s1` was tested, and the IC50 was > 54 µM (inactive).
In the case of `N=c1cc(C2(O)CCCCC2)n2c(nc3ccccc32)s1`, the IC50 is reported as > 54 µM (inactive).
In the case of `COc1ccccc1CCc1nnc(CCC(=O)NC(C)Cc2cccnc2)o1` (stereo not drawn), the IC50 is reported as > 54 µM (inactive).
`O=c1c2ccccc2nc(/C=C/c2cccnc2)n1CCc1ccccc1` gave an IC50 of 0.63 µM.
`CCOC(=O)c1ccccc1NC(=O)c1nc2nccc(C)n2n1` was tested, and the IC50 was > 54 µM (inactive).
`Cc1cccc(N(CC(=O)NC2CCCC2)C(=O)c2cc3cc4cccc(C)c4nc3s2)c1C` was tested, and the IC50 was > 54 µM (inactive).
In the case of `CC(C)n1c(SCC(=O)Nc2ccc3c(c2)OCO3)nc2c1c(=O)n(C)c(=O)n2C`, the IC50 is reported as > 54 µM (inactive).
With `COc1ccc(-n2c(=O)cc(N3CCOCC3)[nH]c2=O)cc1` the IC50 was > 54 µM (inactive).
In the case of `COc1cccc(N2CCN(C(=O)NC3CCCCC3)CC2)c1`, the IC50 is reported as > 54 µM (inactive).
`O=C(Nc1nccs1)c1cccc(N2C(=O)c3cccc4c([N+](=O)[O-])ccc(c34)C2=O)c1` was tested, and the IC50 was 0.53 µM.
`Clc1ccc(OCCN2CCCCC2)c(Cl)c1` was tested, and the IC50 was > 54 µM (inactive).
With `N/C(CS(=O)(=O)c1ccc(F)cc1)=N\O` the IC50 was > 54 µM (inactive).
Molecule `Cc1ccc(S(=O)(=O)/N=C2/C=C(Sc3ncn[nH]3)C(=O)c3ccccc32)cc1` has an IC50 of 2.73 µM.
In the case of `Cn1c(=O)c2c(nc(Cc3ccc(N)cc3)n2C)n(C)c1=O`, the IC50 is reported as > 54 µM (inactive).
For `O=C(c1ccccc1)N1CCN(Cc2ccccc2Br)CC1`, the IC50 was > 54 µM (inactive).
`Cc1cccc(C(=O)Nc2ccnc(-c3cccnc3)n2)c1` was tested, and the IC50 was > 54 µM (inactive).
With `Cc1ccnc(N/C=C(\C#N)c2nc(-c3cccc(Br)c3)cs2)c1` the IC50 was 0.79 µM.
In the case of `COc1ccc(C(=O)N2CCN(Cc3ccccc3C)CC2)cc1OC`, the IC50 is reported as > 54 µM (inactive).
For `O=C1CSC(c2ccncc2)N1Cc1ccccc1` (stereo not drawn), the IC50 was > 54 µM (inactive).
With `Cn1c(CSc2nc3ccccc3s2)nnc1SCC(=O)NCc1cccnc1` the IC50 was > 54 µM (inactive).
With `COC(=O)c1sccc1NC(=O)c1cc(C)on1` the IC50 was > 54 µM (inactive).
`Cc1cc(=O)c2ccc(C(F)(F)F)cc2[nH]1` was tested, and the IC50 was > 54 µM (inactive).
`CCN(CC)C(=O)COC(=O)c1cc(-c2ccc(OC)cc2)nc2ccccc12` was tested, and the IC50 was > 54 µM (inactive).
With `Cc1cc(C)cc(N(CC(=O)NC2CCC(C)CC2)S(=O)(=O)c2c(C)noc2C)c1` (stereo not drawn) the IC50 was > 54 µM (inactive).
With `O=C(Nc1ccc(-c2nc3cc(Cl)ccc3c(=O)o2)cc1)c1ccco1` the IC50 was > 54 µM (inactive).
In the case of `Cc1ccsc1C(=O)OCC(=O)N1CCOCC1`, the IC50 is reported as > 54 µM (inactive).
With `O=[N+]([O-])c1cc(Cl)cc(/C=N\Nc2ccccn2)c1O` the IC50 was 9.24 µM.
In the case of `COC(=O)CN1C(C)=Nc2ccc(Br)cc2C1c1ccccc1` (stereo not drawn), the IC50 is reported as > 54 µM (inactive).
In the case of `Fc1ccccc1NC(=S)N1CCN(Cc2ccc3c(c2)OCO3)CC1`, the IC50 is reported as > 54 µM (inactive).
`CCc1ccc(CCC(=O)Nc2ccc(C)cc2C)o1` was tested, and the IC50 was > 54 µM (inactive).
With `CCO[C@@H]1OC(C(=O)N2CCN(Cc3ccccc3)CC2)=C[C@H](C2CC2)[C@H]1CCCO` the IC50 was > 54 µM (inactive).
In the case of `CC(=O)N1CCc2cc(S(=O)(=O)NC(Cc3ccccc3)C(=O)NC3CCCCCC3)ccc21` (stereo not drawn), the IC50 is reported as > 54 µM (inactive).
With `Cc1nc(C)n(CC(O)COc2ccc3c(c2)CCC3)n1` (stereo not drawn) the IC50 was > 54 µM (inactive).
With `CC(Cc1ccccc1)NCC(=O)Nc1cc(N(C)C)nc2ccccc12` (stereo not drawn) the IC50 was > 54 µM (inactive).
`O=C(/C=C/Nc1cccc(F)c1)c1ccco1` was tested, and the IC50 was > 54 µM (inactive).
With `O=S(=O)(c1ccccc1F)N1CCN(Cc2nc3ccccc3[nH]2)CC1` the IC50 was > 54 µM (inactive).
For `CCOC(=O)c1cc(C#N)c(SCC(=O)OC)[nH]c1=O`, the IC50 was > 54 µM (inactive).
For `CC(CCC(=O)Nc1nncs1)C(=O)O` (stereo not drawn), the IC50 was > 54 µM (inactive).
In the case of `FC(F)(F)c1ccncc1-c1nnnn1-c1ccc(Cl)cc1`, the IC50 is reported as > 54 µM (inactive).
`Cc1ccc(CNc2nc(C)nc3sc4c(c23)CCC4)cc1` was tested, and the IC50 was > 54 µM (inactive).
Molecule `CC(C)C(C(=O)O)N1C(=O)/C(=C/C=C/c2ccco2)SC1=S` (stereo not drawn) has an IC50 of 2.35 µM.
`O=c1c(O)cccc2cc(O)c(O)c(O)c12` was tested, and the IC50 was 0.92 µM.
For `N=C1/C(=C/c2cccn2-c2cccc([N+](=O)[O-])c2)C(=O)N=C2SC=CN12`, the IC50 was 12.5 µM.
`COc1ccc(C(=O)NCc2nnc(SCC(=O)N3CCCCC3)o2)cc1OC` was tested, and the IC50 was > 54 µM (inactive).
With `Cc1occc1C(=O)N/N=C/c1ccc(N(C)C)cc1` the IC50 was > 54 µM (inactive).
In the case of `Cc1ccc(OCc2ccc(C(=O)Nc3nc4ccccc4n3Cc3ccccc3)o2)c([N+](=O)[O-])c1`, the IC50 is reported as > 54 µM (inactive).
In the case of `COc1ccc(-c2ccc(/C=C3/C(=N)N4C=CSC4=NC3=O)o2)c([N+](=O)[O-])c1`, the IC50 is reported as 1.46 µM.
In the case of `O=C(O)c1ccccc1-c1ccc(/C=c2\sc3nc4cc(Br)cnc4n3c2=O)o1`, the IC50 is reported as 18.5 µM.
For `COC(=O)c1ccc(-c2nc3cc(Cl)c(N)cc3s2)cc1`, the IC50 was > 54 µM (inactive).
With `CCN1/C(=C/C=C/c2oc3ccc4ccccc4c3[n+]2CC)Oc2ccc3ccccc3c21` the IC50 was 0.58 µM.
For `COC(=O)CSc1nc(C)c(C)c(C)c1C(N)=O`, the IC50 was > 54 µM (inactive).
`COc1ccc(C(=O)N(Cc2ccccc2)Cc2cc3cc4c(cc3[nH]c2=O)OCCO4)cc1` was tested, and the IC50 was > 54 µM (inactive).
`O=C(Nc1cnn(C23CC4CC(CC(C4)C2)C3)c1)c1cnn2c(C(F)(F)F)cc(-c3ccco3)nc12` gave an IC50 of 1.38 µM.
`COc1cc(C(=O)N/N=C\c2ccccc2)c([N+](=O)[O-])c(OC)c1OC` was tested, and the IC50 was > 54 µM (inactive).
With `O=C(Nc1ccc(S(=O)(=O)Nc2nccs2)cc1)c1cc(-c2ccccc2Cl)nc2ccccc12` the IC50 was > 54 µM (inactive).
Molecule `CC1(c2ccccc2)CC(C)(C)N2C(=O)/C(=C3\SC(=S)NC3=O)c3cccc1c32` (stereo not drawn) has an IC50 of 2.16 µM.
In the case of `CC(C)(C)NC(=O)c1sccc1C(=O)O`, the IC50 is reported as > 54 µM (inactive).
For `CC(C)(C)C(O)C(Oc1ccc(Cl)cc1)n1cncn1` (stereo not drawn), the IC50 was > 54 µM (inactive).
With `Cc1noc2ncnc(SCc3ccc(C(F)(F)F)cc3)c12` the IC50 was > 54 µM (inactive).
With `CN(C)S(=O)(=O)c1cccc(-c2nn(-c3ccccc3)cc2/C=C2\SC(=S)NC2=O)c1` the IC50 was 9.99 µM.
In the case of `CCCCCC#CCC#CCC#CCC#CCCCC(=O)O`, the IC50 is reported as 1.78 µM.
For `CC(C)CN(CC(C)C)C(=S)NC1CCCCC1`, the IC50 was > 54 µM (inactive).
In the case of `CCOC(=O)c1[nH]cnc1C(=O)Nc1ccncc1`, the IC50 is reported as > 54 µM (inactive).
With `O=S(=O)(c1cccc(-c2nnc(SC(F)F)n2-c2ccccc2)c1)N1CCCCC1` the IC50 was > 54 µM (inactive).
With `COc1ccc(C2CC(c3ccccc3)Nc3nc(N)nn32)cc1` (stereo not drawn) the IC50 was > 54 µM (inactive).
Work on `COc1ccc2nc(-n3c(O)c(C4=c5ccccc5=NC4=O)[nH]c3=S)sc2c1` yielded an IC50 of 1.38 µM.
With `CCc1ccc(NC(=O)c2ccnc(C(C)(C)C)c2)cc1` the IC50 was > 54 µM (inactive).
For `O=C1c2ccccc2C(=O)N1Cc1nc2ccccc2c(=O)n1-c1cccnc1`, the IC50 was > 54 µM (inactive).
For `Cc1nnc(Sc2cc(C(=O)NC3CC3)c3ccccc3n2)s1`, the IC50 was > 54 µM (inactive).
For `O=C(COc1ccc2c(c1)CCC2)N1CCc2ccccc21`, the IC50 was > 54 µM (inactive).
`Cc1ccc(CNC(=O)c2ccc3nc4[nH]c5ccccc5c4nc3c2)cc1` was tested, and the IC50 was 6.82 µM.
`CN(C)c1ccc(-c2nn3c(-c4ccc(Cl)cc4Cl)nnc3s2)cc1` was tested, and the IC50 was 0.77 µM.
For `CCN(CC)c1ccc(NC(=O)Cn2ncc3c(C)n(Cc4ccccc4F)c(C)c3c2=O)c(C)c1`, the IC50 was 0.53 µM.
`CCOC(=O)c1cc(-c2ccccc2)n(CC(=O)N2CCCC2)c1C` was tested, and the IC50 was > 54 µM (inactive).
For `c1coc(-c2nc3c4c5c(sc4ncn3n2)CCCC5)c1`, the IC50 was > 54 µM (inactive).
With `C/C(=N/NC(=O)c1ccccn1)c1ccc(O)cc1` the IC50 was > 54 µM (inactive).
Molecule `N=C1S/C(=C\c2ccc(-c3cccc(Cl)c3)o2)C(=O)N1c1nccs1` has an IC50 of 1.05 µM.
`O=C1CSC(=S)N1/N=C/c1ccc(O)c(O)c1O` gave an IC50 of 1.17 µM.
Work on `O=C(CSc1nc2ccccc2c2nc3ccccc3n12)NCc1ccco1` yielded an IC50 of 2.5 µM.
Molecule `COc1ccc(N=Nc2ccc(O)c3ncccc23)cc1` has an IC50 of 15.1 µM.
In the case of `Cc1cccc(-n2c(SCC(=O)Nc3nnc(C)s3)nnc2-c2ccoc2C)c1`, the IC50 is reported as > 54 µM (inactive).
With `CCOC(=O)c1c2ccc(OCC(=O)N/N=C/c3ccc(C)cc3)cc2n2ccccc12` the IC50 was 6.23 µM.
With `NCCCC[C@H](NC(=O)C1CCNCC1)c1nnc(CN)o1` the IC50 was > 54 µM (inactive).
In the case of `O=C(CSCc1ccccc1)NCCCN1CCOCC1`, the IC50 is reported as > 54 µM (inactive).
`CC(=O)c1cccc(NC(=O)C2CCN(C(=O)c3ccc([N+](=O)[O-])cc3)CC2)c1` was tested, and the IC50 was > 54 µM (inactive).
For `CCOc1ccc(-c2nnc(-c3ccccc3)n2-c2ccccc2)cc1`, the IC50 was “inactive”.
With `Cc1cc(C)n(Cc2cccc(F)c2)c(=O)c1C#N` the IC50 was > 54 µM (inactive).
